{"source": "paper PMC10348910", "about": "“Epigenetic reprogramming of cell cycle genes by ACK1 promotes breast cancer resistance to CDK4/6 inhibitor” (Oncogene, 2023)", "key": {"[1]": {"tested_on": "pY88-H4 marks at CDC20, CCNB1 and CCNB2", "test": "ChIP-qPCR with pY88-H4 antibody at CDC20, CCNB1 and CCNB2 loci", "assay_type": "cell-based", "details": "breast cancer cell lines", "method": "Fig. 4 ACK1 epigenetically modifies the chromatin landscape by depositing pY88-H4 activating marks, regulating cell cycle genes. A Breast cancer cell lines were treated with (R)-9b overnight and the cell lysates were subjected to immunoprecipitation using pY88-H4 antibody, followed by immunoblotting with H4 antibody. Lysates were also subjected to immunoblotting with total H4 and Actin antibodies, shown in the lower panels. […] B Venn diagrams summarizing the overlap between sites bound by pY88-H4 in vehicle treated and (R)-9b treated MDA-MB-453 cells. […] Breast cancer cells were subjected to ChIP using pY88-H4 antibody followed by qPCR for (D) CCNB1, (E) CCNB2, and (F) CDC20 genes. […]\nCell pellets were resuspended in RLB buffer and sonicated and the soluble chromatin was incubated with antibodies and Protein-G/A magnetic beads. […] The size and quality of the library was evaluated using the Agilent BioAnalyzer (Agilent Technologies, Inc., Santa Clara, CA), and the library was quantitated with the Kapa Library Quantification Kit. Each enriched DNA library was then sequenced on an Illumina NextSeq 500 sequencer to generate 40–50 million 75-base paired-end reads (Illumina, Inc., San Diego, CA). […]\nReal-time quantitative PCR analyses were performed using the ABI PRISM 7900HT Sequence Detection System (Applied Biosystems) as described earlier. […]"}, "[2]": {"tested_on": "78 targets (cell surface receptors, ion channels, kinases, nuclear hormone receptors, GPCRs and other relevant enzymes)", "test": "DiscoverX SAFETYscan pharmacological profiling (78 assays)", "from_the_text": "We performed pharmacological profiling of (R)-9b, to identify undesirable off-target activity profile using DiscoverX SAFETYscan, which has a broad menu containing 78 assays, and provides functional data for cell surface receptors, ion channels, kinases, nuclear hormone receptors, GPCRs and other relevant enzymes, inhibition of which could cause significant toxicity in human clinical trials."}, "[3]": {"tested_on": "normal breast cell line, MCF10A", "test": "proliferation assay, trypan blue exclusion", "assay_type": "cell-based", "details": "Homo sapiens, MCF-10A, 96 h", "method": "(§1) Fig. 2 ACK1 regulates breast cancer transcriptome, affecting genes implicated in cell cycle progression. A Chemical structure of (R)-9b. B Breast cancer cell lines were treated with either vehicle or (R)-9b overnight and cell lysates were subjected to immunoprecipitation using ACK1 antibody, followed by immunoblotting with pY284-ACK1 antibody. Lysates were also subjected to immunoblotting with total ACK1 and Actin antibodies, shown in the lower panels. […] C Breast cancer cell lines were treated with varying concentrations of (R)-9b for 96 h and the cell proliferation was measured using Trypan Blue exclusion method. […]\n(§2) For proliferation assay, 5 × 10^4 cells were plated in 6-well plate and treated with either vehicle (DMSO) or varying concentrations of (R)-9b or palbociclib in complete media for 96 h and number of viable cells were counted by trypan blue exclusion assay. […] The cells were acquired using the BD FACSCalibur machine (BD Biosciences) and data was analyzed using FlowJo software. […] The data were analyzed using FlowJo software.\n(§3) No data was excluded from the analysis. […] Data were expressed as the mean ± SEM. Data between two groups were analyzed with unpaired Student’s t tests using Graphpad Prism (Graphpad Software Inc, California, USA). […]"}, "[4]": {"tested_on": "breast cancer cell lines", "test": "proliferation assay, trypan blue exclusion", "assay_type": "cell-based", "details": "96 h", "method": "as §1, §2, §3"}, "[5]": {"tested_on": "CCNB1, CCNB2 and CDC20 mRNA", "test": "qRT-PCR of CCNB1, CCNB2 and CDC20 in breast cancer cells", "assay_type": "cell-based", "details": "MCF7, MDA-MB-453, SKBR3 and HCC-1395 cells; overnight", "method": "as §1, with “method. D–H RNA from breast cancer cells treated with vehicle or varying concentrations of (R)-9b overnight, and were subjected to qRT-PCR using CCNB1, CCNB2 and CDC20 primers. Actin or 18S rRNA was used as housekeeping control. For (B), representative images of three independent experiments are shown. For (C), a four parameter, variable slope, non-linear regression curve was computed, representing three independent experiments.” for “method.”\nReal-time quantitative PCR analyses were performed using the ABI PRISM 7900HT Sequence Detection System (Applied Biosystems) as described earlier. […] Data were analyzed using SDS software version 2.2.2 and exported into an Excel spreadsheet. […]"}, "[6]": {"tested_on": "CDK1, CDK2 and WEE1 mRNA", "test": "qRT-PCR of CDK1, CDK2 and WEE1", "assay_type": "cell-based", "details": "MCF-7 and MDA-MB-453; overnight", "method": "Real-time quantitative PCR analyses were performed using the ABI PRISM 7900HT Sequence Detection System (Applied Biosystems) as described earlier. Briefly, the PCR was carried out with SYBR Green PCR Master Mix (Applied Biosystems) using 2 µl of cDNA (or ChIP DNA) and the primers in a 20 µl final reaction mixture. Dissociation curves were generated for each plate to verify the integrity of the primers. Data were analyzed using SDS software version 2.2.2 and exported into an Excel spreadsheet. The 18S or Actin data were used for normalizing the gene values. The sequences for the primers are in Supplementary Table 12.\nSupplementary Figure S9: Effect of ACK1 inhibition on CDKs and WEE1.\nRNA from breast cancer cells treated with vehicle or varying concentrations of (R)-9b overnight were subjected to qRT-PCR using CDK1, CDK2 and WEE1 primers. 18S rRNA was used as housekeeping control. Data are represented as the mean ± SEM from 2 biologically independent experiments. *p<0.05, **p<0.01, ***p<0.001, unpaired two-tailed Student’s t-test."}}}
{"smiles": "CN1CCN(c2ccc(Nc3ncc(Cl)c(NC[C@H]4CCCO4)n3)cc2)CC1", "note": "[(R)-9b]", "values": [{"measurement": "pY88-H4 marks at CDC20, CCNB1 and CCNB2 gene loci (ChIP-qPCR)", "setting": "[1]", "result": "significantly compromised"}, {"measurement": "off-target inhibition in SAFETYscan", "setting": "[2]", "result": "None of the 78 targets were inhibited significantly"}, {"measurement": "IC50", "setting": "[3]", "result": 1490, "unit": "nM"}, {"measurement": "IC50", "setting": "[4]", "result": "250 to 1220", "unit": "nM"}, {"measurement": "CCNB1, CCNB2 and CDC20 mRNA transcripts", "setting": "[5]", "result": "significant downregulation"}, {"measurement": "CDK1 and 2, and WEE1 expression", "setting": "[6]", "result": "affected"}]}
